Reference: US9493411B2 (AbbVie Inc., priority 2013, dated 2016)

Legend:
[1] = target: T1, BRD4 (BDI_K57-E168) (Homo sapiens, UniProt O60885); test: TR-FRET bromodomain binding assay, BRD4 first bromodomain; settings: His-tagged BD1, Alexa647-labeled probe 100 nM; Ki calculated from IC50
T1 construct: BD1: amino acids K57-E168; made in house
In short: (§1)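 His-tagged bromodomain (8 nM) was incubated 1 h at room temperature with Eu-anti-His antibody (1 nM), Alexa647-labeled BET-inhibitor probe (100 nM for BDI, 30 nM for BDII) and compound (50 μM-0.85 nM, 2% DMSO) in pH 6.0 phosphate buffer. TR-FRET ratio read; IC50 from 4-parameter fit converted to Ki using probe Kd.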

[2] = system: breast cancer cell line MX-1; test: MX-1 cell line proliferation assay; assay type: cell-based; settings: Homo sapiens, MX1, 72 h, MX-1 cells, 3-day proliferation assay, Cell Titer Glo; read-out: Cellular proliferation: EC50
Experimental: The impact of compounds of the Examples on cancer cell proliferation was determined using the breast cancer cell line MX-1 (ATCC) in a 3-day proliferation assay and the data are reported in Table 1. MX-1 cells were maintained in RPMI 1640 medium (Sigma) supplemented with 10% FBS at 37° C. and an atmosphere of 5% CO2. For compound testing, MX-1 cells were plated in 96-well black bottom plates at a density of 5000 cells/well in 90 μL of culture media and incubated at 37° overnight to allow cell adhesion and spreading. Compound dilution series were prepared in DMSO via a 3-fold serial dilution from 3 mM to 0.1 μM. The DMSO dilution series were then diluted 1:100 in phosphate buffered saline, and 10 μL of the resulted solution were added to the appropriate wells of the MX-1 cell plate. The final compound concentrations in the wells were 3, 1, 0.3, 0.1, 0.03, 0.01, 0.003, 0.001, 0.0003 and 0.0001 μM.
Luminescence readings from the Cell Titer Glo assay were normalized to the DMSO treated cells and analyzed using the GraphPad Prism software with sigmoidal curve fitting to obtain EC50s. The minimum significant ratio (MSR) was determined to evaluate assay reproducibility (Eastwood et al., (2006) J Biomol Screen, 11: 253-261).

[3] = target: T2, BRD4 (BDII_E352-M457) (Homo sapiens, UniProt O60885); test: TR-FRET bromodomain binding assay, BRD4 second bromodomain; settings: His-tagged BD2, Alexa647-labeled probe 30 nM; Ki calculated from IC50
T2 construct: made in house
In short: as §1

| Ki [1] [nM] | EC50 [2] [nM] | Ki [3] [nM] | SMILES |
| --- | --- | --- | --- |
| 776 | > 10000 | 10200 | Cc1[nH]c(-c2ccccc2Oc2ccc(Cc3ccccc3)cc2)cc1C(N)=O [Example 121, 5-[2-(4-benzylphenoxy)phenyl]-2-methyl-1H-pyrrole-3-carboxamide] |
| 355 | > 10000 | 1860 | Cc1[nH]c(-c2ccccc2Oc2ccc(-n3ccnc3)cc2)cc1C(N)=O [Example 135, 5-{2-[4-(1H-imidazol-1-yl)phenoxy]phenyl}-2-methyl-1H-pyrrole-3-carboxamide] |
| 352 | 2460 | 6900 | Cc1[nH]c(-c2ccccc2NC2CCOC2)cc1C(N)=O (stereo not drawn) [Example 63, 2-methyl-5-[2-(tetrahydrofuran-3-ylamino)phenyl]-1H-pyrrole-3-carboxamide] |
| 355 | 4320 | 605 | Cc1[nH]c(-c2ccccc2Cc2ccccc2)cc1C(N)=O [Example 148, 5-(2-benzylphenyl)-2-methyl-1H-pyrrole-3-carboxamide] |
| 74.9 | 1610 | 326 | Cc1[nH]c(-c2ccccc2-n2cnc3cc(O)ccc32)cc1C(N)=O [Example 146, 5-[2-(5-hydroxy-1H-benzimidazol-1-yl)phenyl]-2-methyl-1H-pyrrole-3-carboxamide] |
| 1500 | 7750 | 2140 | Cc1[nH]c(-c2cccc(-c3cccc(CN4CCN(C)CC4)c3)c2)cc1C(N)=O [Example 158, 2-methyl-5-{3′-[(4-methylpiperazin-1-yl)methyl]biphenyl-3-yl}-1H-pyrrole-3-carboxamide] |
| 281 | 2250 | 2240 | Cc1[nH]c(-c2ccccc2Oc2ccc(Cl)cc2F)cc1C(N)=O [Example 129, 5-[2-(4-chloro-2-fluorophenoxy)phenyl]-2-methyl-1H-pyrrole-3-carboxamide] |
| 529 | 1320 | 1730 | Cc1[nH]c(-c2ccccc2Oc2ccc3cc[nH]c3c2)cc1C(N)=O [Example 118, 5-[2-(1H-indol-6-yloxy)phenyl]-2-methyl-1H-pyrrole-3-carboxamide] |
| 1080 | 28600 | 2100 | Cc1[nH]c(-c2cccc(-c3ccc(C(=O)NCCN(C)C)cc3)c2)cc1C(N)=O [Example 159, 5-(4′-{[2-(dimethylamino)ethyl]carbamoyl}biphenyl-3-yl)-2-methyl-1H-pyrrole-3-carboxamide] |
| 106 | > 3000 | 757 | Cc1[nH]c(-c2cc(S(N)(=O)=O)ccc2Oc2ccc(F)cc2F)cc1C(N)=O [Example 168, 5-[2-(2,4-difluorophenoxy)-5-sulfamoylphenyl]-2-methyl-1H-pyrrole-3-carboxamide] |
| 446 |  | 1230 | Cc1[nH]c(-c2ccccc2Oc2ccc3c(c2)CCC3)cc1C(N)=O [Example 144, 5-[2-(2,3-dihydro-1H-inden-5-yloxy)phenyl]-2-methyl-1H-pyrrole-3-carboxamide] |
| 1960 |  | 7040 | Cc1[nH]c(-c2ccccc2Oc2ccc(Oc3ccccc3)cc2)cc1C(N)=O [Example 122, 2-methyl-5-[2-(4-phenoxyphenoxy)phenyl]-1H-pyrrole-3-carboxamide] |
| 3990 |  | 712 | Cc1[nH]c(-c2ccccc2NS(=O)(=O)c2ccccc2)cc1C(N)=O [Example 78, 2-methyl-5-{2-[(phenylsulfonyl)amino]phenyl}-1H-pyrrole-3-carboxamide] |
| 4640 |  | 4220 | Cc1[nH]c(-c2ccc(-c3ccc4ncccc4c3)cc2)cc1C(N)=O [Example 113, 2-methyl-5-[4-(quinolin-6-yl)phenyl]-1H-pyrrole-3-carboxamide] |
| 2990 |  | 7120 | Cc1[nH]c(-c2cccc(-c3cccnc3)c2)cc1C(N)=O [Example 154, 2-methyl-5-[3-(pyridin-3-yl)phenyl]-1H-pyrrole-3-carboxamide] |
| 1480 |  | 1820 | Cc1[nH]c(-c2ccccc2Oc2ccccc2Cc2ccccc2)cc1C(N)=O [Example 138, 5-[2-(2-benzylphenoxy)phenyl]-2-methyl-1H-pyrrole-3-carboxamide] |

Further lines, the molecule ahead of its results:

| SMILES | Ki [1] [nM] | EC50 [2] [nM] | Ki [3] [nM] |
| --- | --- | --- | --- |
| Cc1[nH]c(-c2ccccc2NCc2ccccc2)cc1C(N)=O [Example 12, 5-[2-(benzylamino)phenyl]-2-methyl-1H-pyrrole-3-carboxamide] | 935 | 3440 | 3900 |
| Cc1[nH]c(-c2ccccc2NC[C@H]2CC[C@@H](NC(=O)OC(C)(C)C)CC2)cc1C(N)=O [Example 45, tert-butyl [cis-4-({[2-(4-carbamoyl-5-methyl-1H-pyrrol-2-yl)phenyl]amino}methyl)cyclohexyl]carbamate] | 434 | 5440 | 9290 |
| Cc1[nH]c(-c2ccccc2NCC2CCCO2)cc1C(N)=O (stereo not drawn) [Example 13, 2-methyl-5-{2-[(tetrahydrofuran-2-ylmethyl)amino]phenyl}-1H-pyrrole-3-carboxamide] | 774 | 3300 | 4540 |
| Cc1[nH]c(-c2ccccc2NCC2CCNCC2)cc1C(N)=O [Example 43, 2-methyl-5-{2-[(piperidin-4-ylmethyl)amino]phenyl}-1H-pyrrole-3-carboxamide] | 469 | > 10000 | 11000 |
| Cc1[nH]c(-c2ccccc2NCC2CCOC2)cc1C(N)=O (single isomer, unassigned) [Example 18] | 183 | 2850 | 2340 |
| Cc1[nH]c(-c2ccccc2NCc2cccs2)cc1C(N)=O [Example 38, 2-methyl-5-{2-[(thiophen-2-ylmethyl)amino]phenyl}-1H-pyrrole-3-carboxamide] | 622 | 3800 | 1140 |
| Cc1[nH]c(-c2ccccc2NCCC2CCN(C(=O)OC(C)(C)C)CC2)cc1C(N)=O [Example 44, tert-butyl 4-(2-{[2-(4-carbamoyl-5-methyl-1H-pyrrol-2-yl)phenyl]amino}ethyl)piperidine-1-carboxylate] | 322 | > 10000 | 1790 |
| Cc1[nH]c(-c2ccccc2NCc2cccc(N)c2)cc1C(N)=O [Example 53, 5-{2-[(3-aminobenzyl)amino]phenyl}-2-methyl-1H-pyrrole-3-carboxamide] | 659 | 4170 | 3190 |
| Cc1[nH]c(-c2ccccc2NCc2ccc3[nH]ccc3c2)cc1C(N)=O [Example 56, 5-{2-[(1H-indol-5-ylmethyl)amino]phenyl}-2-methyl-1H-pyrrole-3-carboxamide] | 1630 | > 10000 | 2690 |
| Cc1[nH]c(-c2ccccc2NCC2CCN(C(=O)OC(C)(C)C)C2)cc1C(N)=O (stereo not drawn) [Example 40, tert-butyl 3-({[2-(4-carbamoyl-5-methyl-1H-pyrrol-2-yl)phenyl]amino}methyl)pyrrolidine-1-carboxylate] | 212 | > 10000 | 5580 |
| Cc1[nH]c(-c2ccccc2NCC2CCN(C(=O)OC(C)(C)C)CC2)cc1C(N)=O [Example 41, tert-butyl 4-({[2-(4-carbamoyl-5-methyl-1H-pyrrol-2-yl)phenyl]amino}methyl)piperidine-1-carboxylate] | 480 |  | 16500 |
| Cc1ccccc1CNc1ccccc1-c1cc(C(N)=O)c(C)[nH]1 [Example 24, 2-methyl-5-{2-[(2-methylbenzyl)amino]phenyl}-1H-pyrrole-3-carboxamide] | 1060 |  | 1190 |
| Cc1[nH]c(-c2ccccc2NCc2ccccc2Cl)cc1C(N)=O [Example 34, 5-{2-[(2-chlorobenzyl)amino]phenyl}-2-methyl-1H-pyrrole-3-carboxamide] | 1400 |  | 3450 |
| Cc1[nH]c(-c2ccccc2N(Cc2cccs2)CC2CCCC2)cc1C(N)=O [Example 60, 5-{2-[(cyclopentylmethyl)(thiophen-2-ylmethyl)amino]phenyl}-2-methyl-1H-pyrrole-3-carboxamide] | 5100 |  | 20500 |
| CC(=O)Nc1ccc(CN(CC2CCCC2)c2ccccc2-c2cc(C(N)=O)c(C)[nH]2)cc1 [Example 59, 5-(2-{[4-(acetylamino)benzyl](cyclopentylmethyl)amino}phenyl)-2-methyl-1H-pyrrole-3-carboxamide] | 2130 |  | 3310 |
| Cc1[nH]c(-c2ccccc2NCC2CCCCC2)cc1C(N)=O [Example 36, 5-{2-[(cyclohexylmethyl)amino]phenyl}-2-methyl-1H-pyrrole-3-carboxamide] | 521 |  | 1160 |
